# Earlier results as cited in US12648914B2, “Injectable sustained release composition and method of using the same for treating inflammation in joints and pain associated therewith” (priority 2013, dated 2026).
# What was measured:
# [1] = reported, Möllmann et al. 1998, after inhaled administration
# [2] = human subjects, 40 mg
EC50 [1],Structure (SMILES),release profile after intra-articular administration [2]
0.007 to 0.03 ng/mL,CCC(=O)O[C@]1(C(=O)SCF)[C@H](C)C[C@H]2[C@@H]3C[C@H](F)C4=CC(=O)C=C[C@]4(C)[C@@]3(F)[C@@H](O)C[C@@]21C [fluticasone propionate],–
–,CC(C)(C)CC(=O)OCC(=O)[C@@]12OC(C)(C)O[C@@H]1C[C@H]1[C@@H]3CCC4=CC(=O)C=C[C@]4(C)[C@@]3(F)[C@@H](O)C[C@@]12C [triamcinolone hexacetonide],significant initial burst followed by rapid decline
